Common to all, as to assay type: functional, cell-based
Test [1] concerns the target T1, Free fatty acid receptor 4 (Homo sapiens) (UniProt Q5NUL3).
T1 sequence (whole entry): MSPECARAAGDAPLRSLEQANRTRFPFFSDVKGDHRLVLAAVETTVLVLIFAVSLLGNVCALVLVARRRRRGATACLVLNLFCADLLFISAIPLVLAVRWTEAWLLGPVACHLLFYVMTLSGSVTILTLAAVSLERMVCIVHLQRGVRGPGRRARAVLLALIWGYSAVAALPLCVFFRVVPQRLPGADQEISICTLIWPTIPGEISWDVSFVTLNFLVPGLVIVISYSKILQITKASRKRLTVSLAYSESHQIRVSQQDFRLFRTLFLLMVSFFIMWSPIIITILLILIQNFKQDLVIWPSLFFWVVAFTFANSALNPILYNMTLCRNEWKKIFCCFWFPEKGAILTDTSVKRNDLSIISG
Description: Agonist activity at GPR120/FFA4 (unknown origin) expressed in CHO cells assessed as increase in calcium flux at 10 uM by Fluo-8 AM dye based FLIPR method. On the technique in general: Calcium assays in cells follow changes in intracellular calcium, usually with a dye or a luminescent sensor.

Test [2] deals with T2, Free fatty acid receptor 3 (Homo sapiens) (UniProt O14843).
T2 sequence (whole entry): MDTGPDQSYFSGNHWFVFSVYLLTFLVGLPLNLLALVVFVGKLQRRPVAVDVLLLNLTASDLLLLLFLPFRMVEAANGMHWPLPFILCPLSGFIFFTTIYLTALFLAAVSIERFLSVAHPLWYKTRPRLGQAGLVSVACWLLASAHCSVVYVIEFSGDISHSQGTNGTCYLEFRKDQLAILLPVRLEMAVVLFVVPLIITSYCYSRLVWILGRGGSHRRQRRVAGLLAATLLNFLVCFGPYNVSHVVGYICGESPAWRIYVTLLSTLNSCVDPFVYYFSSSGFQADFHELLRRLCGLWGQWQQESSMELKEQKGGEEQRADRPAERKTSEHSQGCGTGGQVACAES
Description: Agonist activity at GPR41/FFA3 (unknown origin) expressed in CHO cells assessed as increase in calcium flux at 10 uM by Fluo-8 AM dye based FLIPR method.

Test [3] concerns the target T3, Free fatty acid receptor 1 (Homo sapiens, UniProt O14842). Description: Agonist activity at human GPR40/FFA1 expressed in CHO cells assessed as increase in calcium flux at 1 uM by Fluo-8 AM dye based FLIPR method.
The target in test [4] is T4, Free fatty acid receptor 2 (Homo sapiens) (UniProt O15552).
T4 sequence (whole entry): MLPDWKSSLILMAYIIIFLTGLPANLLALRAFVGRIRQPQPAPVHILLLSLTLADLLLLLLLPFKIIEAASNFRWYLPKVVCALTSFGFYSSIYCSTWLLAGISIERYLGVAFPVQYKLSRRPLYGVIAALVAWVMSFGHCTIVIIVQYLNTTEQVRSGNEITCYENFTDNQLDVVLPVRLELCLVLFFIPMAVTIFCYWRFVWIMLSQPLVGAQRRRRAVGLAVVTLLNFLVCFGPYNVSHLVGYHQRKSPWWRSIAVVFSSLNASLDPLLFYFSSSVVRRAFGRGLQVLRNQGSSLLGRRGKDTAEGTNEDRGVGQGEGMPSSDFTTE
Nature of the test: Agonist activity at GPR43/FFA2 (unknown origin) expressed in CHO cells assessed as increase in calcium flux at 10 uM by Fluo-8 AM dye based FLIPR method.

Test [5] addresses T3, Free fatty acid receptor 1. Description: Agonist activity at human GPR40/FFA1 expressed in CHO cells assessed as increase in calcium flux at 1 uM by Fluo-8 AM dye based FLIPR method relative to 10 uM GW9508.

Calls of active or inactive are those of the source. The rule behind the calls is not given here.

T3 sequence (O14842 whole entry): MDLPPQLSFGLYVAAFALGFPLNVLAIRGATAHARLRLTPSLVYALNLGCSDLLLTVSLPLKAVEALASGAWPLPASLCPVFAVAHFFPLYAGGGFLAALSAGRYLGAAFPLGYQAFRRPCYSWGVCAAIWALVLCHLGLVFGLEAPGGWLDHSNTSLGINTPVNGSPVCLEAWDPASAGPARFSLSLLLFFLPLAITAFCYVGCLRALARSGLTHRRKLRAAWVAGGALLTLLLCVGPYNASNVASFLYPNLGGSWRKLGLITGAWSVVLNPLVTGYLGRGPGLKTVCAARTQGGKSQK

A word on the EC50: it is the concentration that produces a half-maximal response. As to `COc1ccc(C(Cc2nnc(C(=O)Nc3ccc(CCC(=O)O)cc3)s2)c2ccccc2)cc1` (stereo not given), the outcome in test [1], in test [2] and in test [4] was inactive. The EC50 in test [3] was found to be 1.35 µM. Also, the Activity in test [5] was determined as 78.9%.

With `O=C(O)CCc1ccc(NC(=O)c2nnc(COc3ccc4c(c3)CCC4)s2)cc1`, the result in test [1], in test [2] and in test [4] was inactive. Moreover, the EC50 in test [3] amounted to 1.38 µM. For the same compound, in test [5], the Activity stood at 91.2%.

For `Cc1ccc(OCc2nnc(C(=O)Nc3ccc(CCC(=O)O)cc3)s2)cc1C`, the result in test [1], in test [2] and in test [4] was inactive. The half-maximal effective concentration (EC50) in test [3] is 1.13 µM. In addition, in test [5], the Activity turned out to be 64.9%.

Turning to `O=C(O)CCc1ccc(NC(=O)c2nnc(Cc3cccc(Cl)c3)s2)cc1`, the result in test [1], in test [2] and in test [4] was inactive. In addition, in test [3], the EC50 turned out to be 2.39 µM. Further, the Activity in test [5] turned out to be 79.4%.

The values above are taken from ChEMBL document CHEMBL4190352, “Continued SAR exploration of 1,2,4-thiadiazole-containing scaffolds in the design of free fatty acid receptor 1 (GPR40) agonists” (Eur J Med Chem, 2017).
